Legend:
Type in all cases: cell-based
[1] = system: mitochondria activities of human fibroblasts (CCD-966SK); assay: Mitochondria activity test (JC-1 membrane potential, flow cytometry); settings: 24 h, 37° C.
Procedure: Then, in order to confirm the effect of each of the amino acid sequences on mitochondria activities, human fibroblasts (CCD-966SK) and the individual peptides were co-cultured, and then, the mitochondrion activities was analyzed. 6 types of synthesized peptides were respectively subjected to mitochondria activity tests. In addition, the amino acid sequences of 6 types of synthesized peptides were respectively SEQ ID NO: 1, SEQ ID NO: 2, SEQ ID NO: 3, SEQ ID NO: 4, SEQ ID NO: 5 and SEQ ID NO: 6. The sequence numbers SEQ ID NO: 1 to SEQ ID NO: 6 will be referred to as groups.
For mitochondria activity tests, after human fibroblasts and samples to be tested (such as peptides or compositions) were co-cultured, then, co-cultured cells were treated by a mitochondria membrane potential detection kit (containing a JC-1 mitochondria coloring agent, purchased from BD). Mitochondria activity test groups were divided into 7 groups.
Firstly, each of the groups (Experiment group H to Experiment group M, and Control group) was co-cultured with 1×10^5 human fibroblasts in a cell culture plate containing 2 ml of cell culture medium (X-VIVO™ 10). Then, the samples to be tested for each of the group were added into corresponding culture plates according to Table 6, and were co-cultured with the human fibroblasts at 37° C. for 24 h. Control group was co-cultured for 24 h by a peptide-free culture medium under the same conditions.
Before the mitochondria activity test was performed, a JC-1 mitochondria coloring agent was prepared. Firstly, a 10× JC-1 buffer solution was preheated at 37° C., was then diluted into a 1× JC-1 buffer solution by a 1× phosphate buffer solution (PBS, purchased from Gibco), and was maintained at 37° C. after being uniformly mixed. 130 μl of dimethyl sulfoxide (DMSO) was added into a lyophilized JC-1 reagent to prepare a JC-1 stock solution. Then, the JC-1 stock solution was diluted 1000 folds by the 1× JC-1 buffer solution to prepare a JC-1 work solution.
After co-culture for 24 h, the cell culture medium in the culture plate was removed. The co-cultured cells were rinsed twice by PBS so as to remove the residual cell culture medium. The cells were trypsinized from the culture plate, and were collected into a 1.5 ml microcentrifuge tube to be centrifuged for 5 min at 400×g so as to form a primary supernatant and a primary cell precipitate. After the primary supernatant was removed, the primary cell precipitate was resuspended by PBS to form a primary cell solution. The primary cell solution was transferred into a 1.5 ml centrifuge tube to be centrifuged for 5 min at 400×g again so as to separate the primary cell solution into a secondary supernatant and a secondary cell precipitate. Then, after the secondary supernatant was removed, 100 μl of JC-1 work solution was added to the secondary cell precipitate and vortexed to form a secondary cell solution. The secondary cell solution was cultured in dark at a room temperature for 15 min.
After cultured dark, the secondary cell solution was centrifuged for 5 min at 400×g. […] Standard deviations of the results were calculated by an STDEV formula of Excel software, and statistically significant differences were analyzed by one-tailed student t-test in the Excel software. […]

[2] = system: CCT5 gene; assay: Anti-aging gene expression test in human fibroblasts (qPCR), CCT5 gene; settings: 25 μg synthesized peptide per 1 ml medium, human fibroblasts (CCD-966SK), 24 h, 37° C.
Procedure: (§1) In order to confirm the effect of each of the amino acid sequences on gene expression in cells, human fibroblasts (CCD-966SK) and individual synthesized peptides were co-cultured, and then, gene expression in the cells was analyzed. 6 types of synthesized peptides were respectively subjected to cell experiments. In addition, the amino acid sequences of 6 types of synthesized peptides were respectively SEQ ID NO: 1, SEQ ID NO: 2, SEQ ID NO: 3, SEQ ID NO: 4, SEQ ID NO: 5 and SEQ ID NO: 6. The sequence numbers SEQ ID NO: 1 to SEQ ID NO: 6 will be referred to as groups. […]
(§2) For peptide experiment groups (corresponding to Experiment group A to Experiment group F), according to a proportion of 25 μg of synthesized peptide per 1 ml of cell culture medium, the human fibroblasts were cultured for 24 h at 37° C. […] In addition, the primers firstly reacted by a green fluorescent dye of SYBR green dye (Applied Biosystem), and quantification of gene expression was performed by a 2-ΔΔCt method. It should be noted that the gene expression in the drawings was shown in relative fold, ratio or percentage, where standard deviations were calculated by an STDEV formula of Excel software, and statistically significant differences were analyzed by one-tailed student t-test in the Excel software. […]

[3] = system: SIRT1 gene; assay: Anti-aging gene expression test in human fibroblasts (qPCR), SIRT1 gene; settings: 25 μg synthesized peptide per 1 ml medium, human fibroblasts (CCD-966SK), 24 h, 37° C.
Procedure: as §1, §2

[4] = system: CCT7 gene; assay: Anti-aging gene expression test in human fibroblasts (qPCR), CCT7 gene; settings: 25 μg synthesized peptide per 1 ml medium, human fibroblasts (CCD-966SK), 24 h, 37° C.
Procedure: as §1, §2

[5] = system: CCT2 gene; assay: Anti-aging gene expression test in human fibroblasts (qPCR), CCT2 gene; settings: 25 μg synthesized peptide per 1 ml medium, human fibroblasts (CCD-966SK), 24 h, 37° C.
Procedure: as §1, §2

[6] = system: Pink1 gene; assay: Anti-aging gene expression test in human fibroblasts (qPCR), Pink1 gene; settings: 25 μg synthesized peptide per 1 ml medium, human fibroblasts (CCD-966SK), 24 h, 37° C.
Procedure: as §1, §2

[7] = system: Atg8 gene; assay: Anti-aging gene expression test in human fibroblasts (qPCR), Atg8 gene; settings: 25 μg synthesized peptide per 1 ml medium, human fibroblasts (CCD-966SK), 24 h, 37° C.
Procedure: as §1, §2

[8] = system: Ubl-5 gene; assay: Anti-aging gene expression test in human fibroblasts (qPCR), Ubl-5 gene; settings: 25 μg synthesized peptide per 1 ml medium, human fibroblasts (CCD-966SK), 24 h, 37° C.
Procedure: as §1, §2

[9] = system: CCT6A gene; assay: Anti-aging gene expression test in human fibroblasts (qPCR), CCT6A gene; settings: 25 μg synthesized peptide per 1 ml medium, human fibroblasts (CCD-966SK), 24 h, 37° C.
Procedure: as §1, §2

[10] = system: CCT8 gene; assay: Anti-aging gene expression test in human fibroblasts (qPCR), CCT8 gene; settings: 25 μg synthesized peptide per 1 ml medium, human fibroblasts (CCD-966SK), 24 h, 37° C.
Procedure: as §1, §2

Sequence	improvement of mitochondria activities as compared with Control group ([1]; 10 μg peptide in 2 ml medium)	fold of upregulation of CCT5 gene expression vs Control group [2]	fold of upregulation of SIRT1 gene expression vs Control group [3]	fold of upregulation of CCT7 gene expression vs Control group [4]	fold of upregulation of CCT2 gene expression vs Control group [5]	fold of upregulation of Pink1 gene expression vs Control group [6]	improvement of mitochondria activities as compared with Control group ([1]; 25 μg peptide in 2 ml medium)	fold of upregulation of Atg8 gene expression vs Control group [7]	fold of upregulation of Ubl-5 gene expression vs Control group [8]	fold of upregulation of CCT6A gene expression vs Control group [9]	fold of upregulation of CCT8 gene expression vs Control group [10]
NPGPHGQPGPPGP (listed as Pangasius bocourti) [SEQ ID NO: 4, synthesized peptide of Basa skin; Persistent plexus]	32.9%	–	–	–	–	–	–	–	–	–	–
GPLGPIGPPGLP (listed as Pangasius bocourti) [SEQ ID NO: 6, synthesized peptide of Basa skin; Procollagen, type V, alpha I]	–	6.76 folds	6.52 folds	7.89 folds	5.71 folds	6.42 folds	68.9%	4.28 folds	5.16 folds	5.28 folds	6.43 folds
VAEGAQGNIGPA (listed as Pangasius bocourti) [SEQ ID NO: 3, synthesized peptide of Basa skin; Kinesin family member 21B]	25.6%	–	–	–	–	–	–	–	–	–	–
DKPLIPEGP (listed as Pangasius bocourti) [SEQ ID NO: 5, synthesized peptide of Basa skin; Titin, tandem duplicate 2]	26.7%	6.03 folds	6.62 folds	7.92 folds	5.86 folds	5.85 folds	–	5.13 folds	5.24 folds	5.47 folds	6.88 folds
PGAPGSSGPKG (listed as Pangasius bocourti) [SEQ ID NO: 2, synthesized peptide of Basa skin; collagen, type XIV]	32.7%	–	–	–	–	–	–	–	–	–	–

— US11471395B2, “Method for preventing aging with bioactive compound” (TCI CO., LTD., priority 2020, dated 2022)
